The values below come from patent US20220363710A1, “SMALL-MOLECULE COMPOUND HAVING A2A ADENOSINE RECEPTOR ANTAGONISM” (ACADEMY OF MILITARY MEDICAL SCIENCES, priority 2019, published 2022).

Data set [1] deals with T1, (human) A2A adenosine receptor (Homo sapiens, UniProt P29274).
T1 construct: purchased PerkinElmer Research Products (Boston, Mass.); host or cells: HEK-293 cells, stably transfected; membrane preparation
Briefly: Radioligand binding test ([3H]CGS21680 displacement, hA2A HEK-293 cell membranes). The conditions noted are these: for IC50: [3H]-CGS 21680 25 nM, hA2A HEK-293 cell membrane, 25° C., 90 minutes, read-out: IC50 (nM), compounds binding to A2A adenosine receptor; for Ki: read-out: Ki (nM), inhibition constant for binding to A2A adenosine receptor. The procedure:
Cell membranes stably transfected with (human) A2A adenosine receptor were prepared in HEK-293 cells. The cell membranes were obtained from PerkinElmer Research Products (Boston, Mass.).
CGS 21680 (2-[p-(2-carboxyethyl)phenylethylamino]-5′-ethylcarboxamidoadenosine) was purchased from Selleck (Shanghai, CN).
The A2A adenosine receptors used were all expressed in the cell membranes. The compound was diluted 3 times serially with DMSO (Solarbio, D8371-250 ml) to generate compound source plates with 10 different concentrations (10 μM, 3.3 μM, 1.1 μM, 0.37 μM, 0.12 μM, 0.0412 μM, 0.0137 μM, 0.0046 μM, 0.0015 μM, 0.0005 μM), 250 nL of compound was added to 384-well Opti-plate, sealed with parafilm. […] (final 25 nM) was added to the diluted cell membrane and mixed well. 50 μL of the prepared dilution solution of cell membrane was transferred to the 384-well Opti-plate containing compound and incubated at 25° C. for 90 minutes. 100 μL of 0.5% Polyethyleneimine solution (PEI) was added to […]-96 GF/B filter plate, and soaked for 90 minutes at 4° C., then 500 μL of washing buffer/well (50 mM Tris-HCl, pH 7.4, 154 mM NaCl) was transferred with Cell Harvester to wash the […]-96 GF/B filter plate twice. The mixed system in the Opti-plate was transferred to the washed […]-96 GF/B filter plate, 500 μL of washing buffer/well (50 mM Tris-HCl, pH 7.4, 154 mM NaCl) was used to wash the […]-96 GF/B filter plate 9 times. Incubation was performed at 37° C. for 3 minutes. 40 μL of ULTIMA GOLD scintillation solution (Perkin Elmer, Cat #77-16061) was added to each well, CPM (count per minute) value was read by a MicroBeta liquid scintillation counter (PerkinElmer).

Data set [2] addresses human adenosine receptor A2A (Homo sapiens, UniProt P29274). Briefly: A2A adenosine receptor cAMP test (LANCE Ultra cAMP, hADORA2A-HEK293 cells). In kind it is cell-based. An excerpt:
A2A Adenosine Receptor cAMP Test
Experimental reagents and consumables: DMEM/F12, G418, Penicillin-Streptomycin, Versene Solution, HEPES, Hank's Buffered Saline Solution, PBS (pH 7.4, 1×, sterile), FBS, BSA Stabilizer 7.5%, Rolipram, NECA were separately purchased from Gibico, Hyclone and Sigma. LANCE® Ultra cAMP kit (Eu-cAMP tracer, Ulight-anti-cAMP reagent, cAMP detection buffer) and hADORA2A-HEK293 cells were purchased from PerkinElmer Research Products (Boston, Mass.). All other reagents were of analytical grade and obtained from commercial sources. 384-well polypropylene microplate and 384-well solid white plate were purchased from Labcyte and Corning, respectively.
Experimental instruments: TECAN automated liquid handling workstation, Echo Acoustic Liquid Handler and EnVison multimode plate reader were purchased from TECAN, Labcyte and […], respectively.
The cells stably expressing human adenosine receptor A2A (hADORA2A-HEK293 cells) were cultured in DMEM/F12 medium containing 10% FBS, 1× Penicillin-Streptomycin and 400 μg/ml G418 in a 37° C. and 5% CO2 environment. Before the experiment, the cells were digested with Versene solution, and the cells were collected by centrifugation at 200 g and room temperature for 5 minutes, and finally resuspended with assay buffer (Hank's buffered saline solution, containing 5 mM HEPES, 0.1% BSA stabilizer and 10 μM Rolipram, pH 7.4). The TECAN automated liquid handling workstation was used to dilute the compound in a 384-well polypropylene microplate with DMSO to 11 concentration points in a 3-fold gradient to prepare the compound source plate, in which the 11 concentration points of the compound were 10 mM, 3.33 mM, 1.11 mM., 0.37 mM, 0.12 mM, 0.041 mM, 0.013 mM, 4.57×10^−3 mM, 1.52×10^−3 mM, 5×10−4 mM and 1.7×10^−4 mM. The Echo Acoustic Liquid Handler (Labcyte) was used to transfer the test compound from the compound source plate to an assay plate, in which the transfer volume of the compound was 10 nl/well. The hADORA2A-HEK293 cell suspension was diluted with assay buffer to 30,000 cells/ml, and the cell suspension was transferred to the assay plate at a volume of 10 μl/well (300 cells/well). The assay plate was centrifuged at 150 g for 1 minute and pre-incubated at room temperature for 30 minutes. The Eu-cAMP tracer working solution (Eu-cAMP tracer 40 μl, cAMP detection buffer 1.96 ml) (5 μl/well) was added to the assay plate, and then the Ulight-anti-cAMP working solution (13 μl of Ulight-anti-cAMP reagent and 1.95 ml of cAMP detection buffer) (5 μl/well) was added to the assay plate. The assay plate was rotated at 150 g for 30 seconds and incubated at room temperature for 30 minutes. The EnVison multimode plate reader (PerkinElmer) was used determine the level of cyclic adenosine monophosphate in the final solution (λex=320 nm, λem=665 nm & 615 nm). The EC50 (nM) value of the compound interacting with the A2A adenosine receptor to stimulate the production of cyclic adenosine monophosphate was calculated and the titer of the compound function was expressed as the EC50 (nM) value.
When the test compounds interacted with A2AAR, the EC50 (nM) values for stimulating the production of cyclic AMP were shown in Table 2.
For orientation: TR-FRET usually uses a lanthanide donor and a delayed reading to cut background.

The mark [3] stands for this setting: stimulating the production of cyclic AMP, read-out: cAMP EC50.
[4] abbreviates: stimulating the production of cyclic adenosine monophosphate, read-out: cAMP EC50 values.

Read-outs that look alike come from different tables or passages of the source.

T1 sequence (P29274 whole entry): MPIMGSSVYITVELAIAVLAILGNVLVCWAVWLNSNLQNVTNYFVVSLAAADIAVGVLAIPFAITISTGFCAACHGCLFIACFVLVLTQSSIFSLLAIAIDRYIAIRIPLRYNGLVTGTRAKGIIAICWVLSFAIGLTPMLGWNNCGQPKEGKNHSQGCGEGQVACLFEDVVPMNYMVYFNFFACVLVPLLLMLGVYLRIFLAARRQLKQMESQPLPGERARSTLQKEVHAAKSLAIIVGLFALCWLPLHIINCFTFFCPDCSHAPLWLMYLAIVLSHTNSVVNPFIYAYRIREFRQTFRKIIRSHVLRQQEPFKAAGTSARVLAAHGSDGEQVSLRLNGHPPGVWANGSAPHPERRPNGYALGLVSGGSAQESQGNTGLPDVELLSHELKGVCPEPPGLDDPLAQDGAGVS
Sequence of human adenosine receptor A2A (P29274 whole entry): as above

One may read the melting point as the temperature, or range, at which the solid turns liquid. By IC50 is commonly meant the concentration that gives 50% inhibition. The term Ki denotes the dissociation constant of the complex between target and ligand, obtained from inhibition or displacement. The compound `OC[C@H]1O[C@@H](n2cnc3c2ncn2c(-c4ccc(-c5ccccn5)cc4)nnc32)[C@@H](O)[C@H]1O` [Compound 7, (2R,3S,4R,5R)-2-{3-[4-(pyridin-2-yl)phenyl]-7H-[1,2,4]triazolo[3,4-i]purin-7-yl}-5-(hydroxymethyl)tetrahydrofuran-3,4-diol] returned a melting point of 172 °C. In data set [1], the IC50 was more than 10000 nM and the Ki is more than 10000 nM.

A word on the EC50: it is the midpoint of the concentration-response curve. Compound `OC[C@H]1O[C@@H](n2cnc3c2ncn2c(C4CCCC4)nnc32)[C@H](O)[C@@H]1O` [Compound 2, (2R,3R,4S,5R)-2-{3-cyclopentyl-7H-[1,2,4]triazolo[3,4-i]purin-7-yl}-5-(hydroxymethyl)tetrahydrofuran-3,4-diol] gave a melting point of 84 °C. Moreover, in data set [2], the “agonistic activity at hA2AAR (cAMP production)” value (“agonistic activity at hA2AAR” below) is on record as “no agonistic activity”. In addition, the EC50 in data set [2] (setting [3]) was more than 10 µM. For the same compound, the EC50 in data set [2] (setting [4]) was more than 10 µM. Further, in data set [1], the IC50 was 3.9 nM and the Ki was 1.8 nM.

`OC[C@H]1O[C@@H](n2cnc3c2ncn2c(-c4ccc(OCc5ccc(F)cc5)cc4)nnc32)[C@H](O)[C@@H]1O` [Compound 4, (2R,3R,4S,5R)-2-{3-{4-[(4-fluorobenzyl)oxy]phenyl}-7H-[1,2,4]triazolo[3,4-i]purin-7-yl}-5-(hydroxymethyl)tetrahydrofuran-3,4-diol] came in with a melting point of 112 °C. Moreover, the “agonistic activity at hA2AAR” value in data set [2] is “no agonistic activity”. Moreover, the EC50 in data set [2] (setting [3]) is more than 10 µM. The EC50 in data set [2] (setting [4]) is more than 10 µM. In data set [1], the IC50 came out at 3.9 nM and the Ki worked out at 1.8 nM.

`OC[C@H]1O[C@@H](n2cnc3c2ncn2c(-c4ccc(C(F)(F)F)cc4C(F)(F)F)nnc32)[C@H](O)[C@@H]1O` [Compound 6, (2R,3R,4S,5R)-2-{3-[2,4-di(trifluoromethyl)phenyl]-7H-[1,2,4]triazolo[3,4-i]purin-7-yl}-5-(hydroxymethyl)tetrahydrofuran-3,4-diol]: in data set [1], the IC50 is more than 10000 nM and the inhibition constant (Ki) is more than 10000 nM.

The compound `OC[C@H]1O[C@@H](n2cnc3c2ncn2c(-c4ccc(-c5ccccc5)cc4)nnc32)[C@H](O)[C@@H]1O` [Compound 8, (2R,3R,4S,5R)-2-{3-{[1,1′-biphenyl]-4-yl}-7H-[1,2,4]triazolo[3,4-i]purin-7-yl}-5-(hydroxymethyl)tetrahydrofuran-3,4-diol] came in with a melting point of 280 °C. Also, in data set [1], the 50% inhibitory concentration (IC50) was determined as 7510 nM and the inhibition constant Ki was 3510 nM.

`CCCOc1ccc(-c2nnc3c4ncn([C@@H]5O[C@H](CO)[C@H](O)[C@@H]5O)c4ncn23)cc1` [Compound 9, (2R,3S,4R,5R)-2-{3-(4-propoxyphenyl)-7H-[1,2,4]triazolo[3,4-i]purin-7-yl}-5-(hydroxymethyl)tetrahydrofuran-3,4-diol] yielded a melting point of 118 °C. In addition, the “agonistic activity at hA2AAR” value in data set [2] was “no agonistic activity”. The EC50 in data set [2] (setting [3]) was more than 10 µM. For the same compound, in data set [2] (setting [4]), the EC50 was more than 10 µM. In addition, in data set [1], the IC50 was determined as 4.3 nM and the Ki amounted to 2 nM.

`OC[C@H]1O[C@@H](n2cnc3c2ncn2c(-c4cccc(OCc5ccccc5)c4)nnc32)[C@H](O)[C@@H]1O` [Compound 5, (2R,3R,4S,5R)-2-{3-[3-(benzyloxy)phenyl]-7H-[1,2,4]triazolo[3,4-i]purin-7-yl}-5-(hydroxymethyl)tetrahydrofuran-3,4-diol] returned a melting point of 76 °C. Moreover, the “agonistic activity at hA2AAR” value in data set [2] is “no agonistic activity”. For the same compound, in data set [2] (setting [3]), the EC50 was more than 10 µM. Besides, the EC50 in data set [2] (setting [4]) was more than 10 µM. Also, in data set [1], the IC50 is 6.2 nM and the Ki was 2.9 nM.

`OC[C@H]1O[C@@H](n2cnc3c2ncn2c(-c4cncs4)nnc32)[C@@H](O)[C@H]1O` [Compound 12, (2R,3S,4R,5R)-2-{3-(thiazol-5-yl)-7H-[1,2,4]triazolo[3,4-i]purin-7-yl}-5-(hydroxymethyl)tetrahydrofuran-3,4-diol] displayed a melting point of 216 °C. In data set [2], the “agonistic activity at hA2AAR” value is “no agonistic activity”. Further, the EC50 in data set [2] (setting [3]) is more than 10 µM. For the same compound, the EC50 in data set [2] (setting [4]) was more than 10 µM. In data set [1], the IC50 was 3.9 nM and the Ki is 1.8 nM.

Take `OC[C@H]1O[C@@H](n2cnc3c2ncn2c(C4CCCCC4)nnc32)[C@H](O)[C@@H]1O` [Compound 13, (2R,3R,4S,5R)-2-{3-cyclohexyl-7H-[1,2,4]triazolo[3,4-i]purin-7-yl}-5-(hydroxymethyl)tetrahydrofuran-3,4-diol]: the melting point amounted to 130 °C. Moreover, in data set [1], the IC50 was more than 10000 nM and the Ki is more than 10000 nM.

Turning to `OC[C@H]1O[C@@H](n2cnc3c2ncn2c(-c4ccc(Br)cn4)nnc32)[C@H](O)[C@@H]1O` [Compound 11, (2R,3R,4S,5R)-2-{3-(5-bromopyridin-2-yl)-7H-[1,2,4]triazolo[3,4-i]purin-7-yl}-5-(hydroxymethyl)tetrahydrofuran-3,4-diol], the melting point was determined as 222 °C. Further, in data set [1], the IC50 was more than 10000 nM and the Ki was more than 10000 nM.

Compound `OC[C@H]1O[C@@H](n2cnc3c2ncn2c(-c4ccc(C(F)(F)F)cc4)nnc32)[C@@H](O)[C@H]1O` [Compound 10, (2R,3S,4R,5R)-2-{3-[4-(trifluoromethyl)phenyl]-7H-[1,2,4]triazolo[3,4-i]purin-7-yl}-5-(hydroxymethyl)tetrahydrofuran-3,4-diol] gave a melting point of 124 °C. Moreover, in data set [1], the IC50 is more than 10000 nM and the Ki is more than 10000 nM.

The compound `OC[C@H]1O[C@@H](n2cnc3c2ncn2c(-c4ccc(OCc5ccccc5)c(OCc5ccccc5)c4)nnc32)[C@H](O)[C@@H]1O` [Compound 3, (2R,3R,4S,5R)-2-{3-[3,4-di(benzyloxy)phenyl]-7H-[1,2,4]triazolo[3,4-i]purin-7-yl}-5-(hydroxymethyl)tetrahydrofuran-3,4-diol] returned a melting point of 116 °C. In data set [1], the IC50 is more than 10000 nM and the Ki is more than 10000 nM.
